Consider one molecule from article PMC5218480 (PLoS ONE, 2017).

This assay relates to MV-4-11 cells. In words: Gene expression microarray analysis (Affymetrix PrimeView) and GSEA. Type of assay: cell-based, human. The arrangement: RFU PODN (11730768_x_at) / Fold change /veh PODN (11730768_x_at) / RFU LINC00158 (11744669_a_at) / Fold change /veh LINC00158 (11744669_a_at) / RFU DUSP10 (11751237_a_at) / Fold change /veh DUSP10 (11751237_a_at) / RFU ID3 (11757404_x_at) / Fold change /veh ID3 (11757404_x_at) / RFU PLEKHG5 (11737974_s_at) / Fold change /veh PLEKHG5 (11737974_s_at) / RFU LRRC4B (11730491_at) / Fold change /veh LRRC4B (11730491_at) / RFU GIMAP4 (11747438_a_at) / Fold change /veh GIMAP4 (11747438_a_at) / RFU KRT8 (11758183_x_at) / Fold change /veh KRT8 (11758183_x_at) / RFU CNN1 (11734310_a_at) / Fold change /veh CNN1 (11734310_a_at) / RFU VPS37D (11726825_at) / Fold change /veh VPS37D (11726825_at) / RFU C10orf10 (11716522_x_at) / Fold change /veh C10orf10 (11716522_x_at) / RFU KIR2DL2 /// KIR2DL4 /// KIR2DL5A /// KIR2DL5B /// KIR2DS1 /// KIR2DS2 /// KIR2DS3 /// KIR2DS4 /// KIR3DL3 /// KIR3DL3 /// KIR3DS1 (11738374_at) / Fold change /veh KIR2DL2 /// KIR2DL4 /// KIR2DL5A /// KIR2DL5B /// KIR2DS1 /// KIR2DS2 /// KIR2DS3 /// KIR2DS4 /// KIR3DL3 /// KIR3DL3 /// KIR3DS1 (11738374_at) / RFU C1QL1 (11718748_at) / Fold change /veh C1QL1 (11718748_at) / RFU TMPRSS4 (11747572_a_at) / Fold change /veh TMPRSS4 (11747572_a_at) / RFU HAMP (11756126_x_at) / Fold change /veh HAMP (11756126_x_at) / RFU RNFT2 (11725882_a_at) / Fold change /veh RNFT2 (11725882_a_at) / RFU NR4A2 (11747474_a_at) / Fold change /veh NR4A2 (11747474_a_at) / RFU ABCC12 (11746883_a_at) / Fold change /veh ABCC12 (11746883_a_at) / RFU TMEM136 (11760407_x_at) / Fold change /veh TMEM136 (11760407_x_at) / RFU CLDN22 /// WWC2 (11732394_at) / Fold change /veh CLDN22 /// WWC2 (11732394_at) / RFU HLA-DPB1 (11760878_x_at) / Fold change /veh HLA-DPB1 (11760878_x_at) / RFU SPINT1 (11716480_a_at) / Fold change /veh SPINT1 (11716480_a_at) / RFU GAP43 (11754022_s_at) / Fold change /veh GAP43 (11754022_s_at) / RFU A4GNT (11735810_at) / Fold change /veh A4GNT (11735810_at) / RFU PRB3 (11715151_x_at) / Fold change /veh PRB3 (11715151_x_at) / RFU TUBB4B (11761932_at) / Fold change /veh TUBB4B (11761932_at) / RFU CAPN14 (11732068_a_at) / Fold change /veh CAPN14 (11732068_a_at) / RFU TMCC2 (11721928_a_at) / Fold change /veh TMCC2 (11721928_a_at) / RFU IRGQ (11745062_a_at) / Fold change /veh IRGQ (11745062_a_at) / RFU FAM174B (11720279_a_at) / Fold change /veh FAM174B (11720279_a_at) / RFU TMPRSS4 (11748680_a_at) / Fold change /veh TMPRSS4 (11748680_a_at) / RFU FAM212B (11763350_a_at) / Fold change /veh FAM212B (11763350_a_at) / RFU PLEKHG5 (11743358_a_at) / Fold change /veh PLEKHG5 (11743358_a_at) / RFU ZSCAN30 (11745921_a_at) / Fold change /veh ZSCAN30 (11745921_a_at) / RFU CMKLR1 (11741424_a_at) / Fold change /veh CMKLR1 (11741424_a_at) / RFU LOC101060620 /// MAPK8IP1 (11723275_at) / Fold change /veh LOC101060620 /// MAPK8IP1 (11723275_at) / RFU SPTSSB (11747773_x_at) / Fold change /veh SPTSSB (11747773_x_at) / RFU PRSS12 (11739890_at) / Fold change /veh PRSS12 (11739890_at) / RFU BIN1 (11741810_x_at) / Fold change /veh BIN1 (11741810_x_at) / RFU WNT11 (11732464_a_at) / Fold change /veh WNT11 (11732464_a_at) / RFU C10orf10 (11716521_a_at) / Fold change /veh C10orf10 (11716521_a_at) / RFU C5orf56 (11738089_at) / Fold change /veh C5orf56 (11738089_at) / RFU CYB561 (11721691_x_at) / Fold change /veh CYB561 (11721691_x_at) / RFU ANKRD19P (11752326_a_at) / Fold change /veh ANKRD19P (11752326_a_at) / RFU OR2T12 /// OR2T33 /// OR2T8 (11738714_s_at) / Fold change /veh OR2T12 /// OR2T33 /// OR2T8 (11738714_s_at) / RFU VCAN (11748164_a_at) / Fold change /veh VCAN (11748164_a_at) / RFU JSRP1 (11732532_at) / Fold change /veh JSRP1 (11732532_at) / RFU KRTAP10-11 (11738290_x_at) / Fold change /veh KRTAP10-11 (11738290_x_at) / RFU MYO3A (11730013_a_at) / Fold change /veh MYO3A (11730013_a_at) / RFU EBF3 (11725865_a_at) / Fold change /veh EBF3 (11725865_a_at) / RFU CAMK2N1 (11719241_x_at) / Fold change /veh CAMK2N1 (11719241_x_at) / RFU C5orf56 (11738088_a_at) / Fold change /veh C5orf56 (11738088_a_at) / RFU OLFML3 (11715873_a_at) / Fold change /veh OLFML3 (11715873_a_at) / RFU LOC100653217 /// NTM (11731650_a_at) / Fold change /veh LOC100653217 /// NTM (11731650_a_at) / RFU MAPK11 (11762145_a_at) / Fold change /veh MAPK11 (11762145_a_at) / RFU FIZ1 (11724087_x_at) / Fold change /veh FIZ1 (11724087_x_at) / RFU OASL (11726364_x_at) / Fold change /veh OASL (11726364_x_at) / RFU SOX15 (11748057_x_at) / Fold change /veh SOX15 (11748057_x_at) / RFU CD79A (11719716_a_at) / Fold change /veh CD79A (11719716_a_at) / RFU HIST1H1D (11736915_at) / Fold change /veh HIST1H1D (11736915_at) / RFU CASKIN2 (11723855_a_at) / Fold change /veh CASKIN2 (11723855_a_at) / RFU LOC730098 (11760151_x_at) / Fold change /veh LOC730098 (11760151_x_at) / RFU OR4N2 (11742367_at) / Fold change /veh OR4N2 (11742367_at) / RFU PRRT2 (11749266_a_at) / Fold change /veh PRRT2 (11749266_a_at) / RFU SNX32 (11753110_a_at) / Fold change /veh SNX32 (11753110_a_at) / RFU CDHR5 (11726645_a_at) / Fold change /veh CDHR5 (11726645_a_at) / RFU RCAN1 (11760418_a_at) / Fold change /veh RCAN1 (11760418_a_at) / RFU FAM167A (11723789_a_at) / Fold change /veh FAM167A (11723789_a_at) / RFU FAM26E (11764081_at) / Fold change /veh FAM26E (11764081_at) / RFU ISYNA1 (11749810_s_at) / Fold change /veh ISYNA1 (11749810_s_at) / RFU ACY1 (11761880_at) / Fold change /veh ACY1 (11761880_at) / RFU 11764098_at / Fold change /veh 11764098_at / RFU SAMD14 (11745864_x_at) / Fold change /veh SAMD14 (11745864_x_at) / RFU NPB (11741838_a_at) / Fold change /veh NPB (11741838_a_at) / RFU TMPRSS6 (11731388_a_at) / Fold change /veh TMPRSS6 (11731388_a_at) / RFU KRTAP10-2 (11738614_at) / Fold change /veh KRTAP10-2 (11738614_at) / RFU ARHGAP8 /// PRR5-ARHGAP8 (11727945_x_at) / Fold change /veh ARHGAP8 /// PRR5-ARHGAP8 (11727945_x_at) / RFU KRTAP5-7 /// NADSYN1 (11734609_at) / Fold change /veh KRTAP5-7 /// NADSYN1 (11734609_at) / RFU RASL12 (11751679_a_at) / Fold change /veh RASL12 (11751679_a_at) / RFU CDKN2B (11736163_a_at) / Fold change /veh CDKN2B (11736163_a_at) / RFU PRF1 (11729649_at) / Fold change /veh PRF1 (11729649_at) / RFU, ZNF638 /// ZNF638-IT1 / Fold change vs veh, ZNF638 /// ZNF638-IT1 / RFU, PANK3 / Fold change vs veh, PANK3 / RFU, SH3YL1 / Fold change vs veh, SH3YL1 / RFU, ZEB2 / Fold change vs veh, ZEB2 / RFU, NRIP1 / Fold change vs veh, NRIP1 / RFU, PTTG1IP / Fold change vs veh, PTTG1IP / RFU, CAPN2 / Fold change vs veh, CAPN2 / RFU, MED14 / Fold change vs veh, MED14 / RFU, SNORA58 / Fold change vs veh, SNORA58 / RFU, C1orf63 / Fold change vs veh, C1orf63 / RFU, LRRFIP1 / Fold change vs veh, LRRFIP1 / RFU, NDUFAF7 / Fold change vs veh, NDUFAF7 / RFU, SLC12A2 / Fold change vs veh, SLC12A2 / RFU, IBTK / Fold change vs veh, IBTK / RFU, ESF1 / Fold change vs veh, ESF1 / Fold change vs veh, TMEM50B / RFU, TAOK1 / Fold change vs veh, TAOK1 / RFU, ACBD3 / Fold change vs veh, ACBD3 / RFU, TMA16 / Fold change vs veh, TMA16 / RFU, RWDD3 / Fold change vs veh, RWDD3 / RFU, BCAT1 / Fold change vs veh, BCAT1 / RFU, EDEM3 / Fold change vs veh, EDEM3 / RFU, TMEM33 / Fold change vs veh, TMEM33 / RFU, WDR75 / Fold change vs veh, WDR75 / RFU, AHCTF1 / Fold change vs veh, AHCTF1 / RFU, TFRC / Fold change vs veh, TFRC / RFU, ZDHHC17 / Fold change vs veh, ZDHHC17 / RFU, NOM1 / Fold change vs veh, NOM1 / RFU, ARL8B / Fold change vs veh, ARL8B / RFU, ZBTB11 / Fold change vs veh, ZBTB11 / RFU, TAMM41 / Fold change vs veh, TAMM41 / RFU, KIAA1704 /// LOC100996395 / Fold change vs veh, KIAA1704 /// LOC100996395 / RFU, ING1 / Fold change vs veh, ING1 / RFU, TRMT61B / Fold change vs veh, TRMT61B / RFU, FUBP3 / Fold change vs veh, FUBP3 / RFU, TP53 / Fold change vs veh, TP53 / RFU, TNKS2 / Fold change vs veh, TNKS2 / RFU, ZFP14 / Fold change vs veh, ZFP14 / RFU, ACTR2 / Fold change vs veh, ACTR2 / RFU, PPP3R1 / Fold change vs veh, PPP3R1 / RFU, PIK3R1 / Fold change vs veh, PIK3R1 / RFU, HNRNPA1 / Fold change vs veh, HNRNPA1 / RFU, RNF170 / Fold change vs veh, RNF170 / RFU, ZNF28 / Fold change vs veh, ZNF28 / RFU, RNGTT / Fold change vs veh, RNGTT / RFU, OGT / Fold change vs veh, OGT / RFU, BRD1 / Fold change vs veh, BRD1 / RFU, MARS / Fold change vs veh, MARS / RFU, ZNF655 / Fold change vs veh, ZNF655 / RFU, FAHD1 / Fold change vs veh, FAHD1 / RFU, BDP1 / Fold change vs veh, BDP1 / RFU, LRRCC1 / Fold change vs veh, LRRCC1 / RFU, ARID1A / Fold change vs veh, ARID1A / RFU, ZNF146 / Fold change vs veh, ZNF146 / RFU, ZNF330 / Fold change vs veh, ZNF330 / RFU, GPN3 / Fold change vs veh, GPN3 / RFU, C9orf123 / Fold change vs veh, C9orf123 / RFU, N4BP2L2 / Fold change vs veh, N4BP2L2 / RFU, ARFIP1 / Fold change vs veh, ARFIP1 / RFU, FAM179B / Fold change vs veh, FAM179B / RFU, BCL10 / Fold change vs veh, BCL10 / RFU, UHRF1BP1L / Fold change vs veh, UHRF1BP1L / RFU, BET1 / Fold change vs veh, BET1 / RFU, CNOT2 / Fold change vs veh, CNOT2 / RFU, ZNF268 / Fold change vs veh, ZNF268 / Fold change vs veh, ZNF507 / RFU, DGCR2 / Fold change vs veh, DGCR2 / RFU, WDSUB1 / Fold change vs veh, WDSUB1 / Fold change vs veh, HSP90B1 /// MIR3652 / RFU, ADSS / Fold change vs veh, ADSS / RFU, GK / Fold change vs veh, GK / RFU, ZNF148 / Fold change vs veh, ZNF148 / RFU, TAF9 / Fold change vs veh, TAF9 / RFU, SLC1A5 / Fold change vs veh, SLC1A5 / RFU, SLMO2 / Fold change vs veh, SLMO2 / RFU, ABCC4 / Fold change vs veh, ABCC4 / RFU, LOC101060439 /// RAP1B / Fold change vs veh, LOC101060439 /// RAP1B / RFU, RFX7 / Fold change vs veh, RFX7 / RFU, GTPBP10 / Fold change vs veh, GTPBP10 / RFU, CNEP1R1 / Fold change vs veh, CNEP1R1 / RFU, BIVM-ERCC5 /// ERCC5 / Fold change vs veh, BIVM-ERCC5 /// ERCC5 / RFU, ILF3 / Fold change vs veh, ILF3 / RFU 11762660_at / Fold change /veh 11762660_at / RFU VCAN (11757783_s_at) / Fold change /veh VCAN (11757783_s_at) / RFU DDX43 (11728927_at) / Fold change /veh DDX43 (11728927_at) / RFU KRT8 (11758188_x_at) / Fold change /veh KRT8 (11758188_x_at) / RFU NKD1 (11759106_at) / Fold change /veh NKD1 (11759106_at) / RFU SRD5A1 (11742802_a_at) / Fold change /veh SRD5A1 (11742802_a_at) / RFU TPSAB1 /// TPSB2 (11721975_s_at) / Fold change /veh TPSAB1 /// TPSB2 (11721975_s_at) / RFU GSTM3 (11746129_a_at) / Fold change /veh GSTM3 (11746129_a_at) / RFU IL23R (11737362_x_at) / Fold change /veh IL23R (11737362_x_at) / RFU TMEM51 (11727254_a_at) / Fold change /veh TMEM51 (11727254_a_at) / RFU PIWIL2 (11732686_x_at) / Fold change /veh PIWIL2 (11732686_x_at) / RFU ORM1 (11744905_x_at) / Fold change /veh ORM1 (11744905_x_at) / RFU CCDC152 (11743942_at) / Fold change /veh CCDC152 (11743942_at) / RFU ECM1 (11717891_a_at) / Fold change /veh ECM1 (11717891_a_at) / RFU IL23R (11748794_a_at) / Fold change /veh IL23R (11748794_a_at) / RFU TNFAIP8L3 (11732012_x_at) / Fold change /veh TNFAIP8L3 (11732012_x_at) / RFU MBOAT4 (11741988_at) / Fold change /veh MBOAT4 (11741988_at) / RFU 11764193_at / Fold change /veh 11764193_at / RFU TMEM53 (11763286_at) / Fold change /veh TMEM53 (11763286_at) / RFU MAGEB2 (11727129_at) / Fold change /veh MAGEB2 (11727129_at) / RFU TMEM200A (11744735_a_at) / Fold change /veh TMEM200A (11744735_a_at) / RFU CCDC152 (11751479_a_at) / Fold change /veh CCDC152 (11751479_a_at) / RFU FAM211A (11726209_a_at) / Fold change /veh FAM211A (11726209_a_at) / RFU RGS16 (11746705_a_at) / Fold change /veh RGS16 (11746705_a_at) / RFU VCAN (11755009_s_at) / Fold change /veh VCAN (11755009_s_at) / RFU RHOB (11743442_s_at) / Fold change /veh RHOB (11743442_s_at) / RFU RGS16 (11720943_a_at) / Fold change /veh RGS16 (11720943_a_at) / RFU RGS16 (11720944_at) / Fold change /veh RGS16 (11720944_at) / RFU, VPS4B / Fold change vs veh, VPS4B / RFU, CREB1 / Fold change vs veh, CREB1 / RFU, DNAJC13 / Fold change vs veh, DNAJC13 / RFU, GNAQ / Fold change vs veh, GNAQ / RFU, CDK5R1 / Fold change vs veh, CDK5R1 / RFU, ZRANB3 / Fold change vs veh, ZRANB3 / RFU, CUL4A / Fold change vs veh, CUL4A / RFU, CCNY / Fold change vs veh, CCNY / RFU, UFL1 / Fold change vs veh, UFL1 / RFU, COG3 / Fold change vs veh, COG3 / RFU, DIAPH2 / Fold change vs veh, DIAPH2 / RFU, SKA2 / Fold change vs veh, SKA2 / RFU, AFF3 / Fold change vs veh, AFF3 / RFU, LMF1 / Fold change vs veh, LMF1 / RFU, IPO11 / Fold change vs veh, IPO11 / RFU, DFFB / Fold change vs veh, DFFB / RFU, FOXP1 / Fold change vs veh, FOXP1 / RFU, CARD8 / Fold change vs veh, CARD8 / RFU, STRN3 / Fold change vs veh, STRN3 / RFU, ADK / Fold change vs veh, ADK / RFU, RASSF2 / Fold change vs veh, RASSF2 / RFU, WIPF1 / Fold change vs veh, WIPF1 / RFU, LARP1B / Fold change vs veh, LARP1B / RFU, RASA1 / Fold change vs veh, RASA1 / RFU, RB1 / Fold change vs veh, RB1 / RFU, PPFIA1 / Fold change vs veh, PPFIA1 / RFU, MAT2A / Fold change vs veh, MAT2A / RFU, CCT5 / Fold change vs veh, CCT5 / RFU, WDR92 / Fold change vs veh, WDR92 / RFU, CUX1 / Fold change vs veh, CUX1 / RFU, TTC7A / Fold change vs veh, TTC7A / RFU, TMEM135 / Fold change vs veh, TMEM135 / RFU, DEPTOR / Fold change vs veh, DEPTOR / RFU, CPM / Fold change vs veh, CPM / RFU, DNAJB6 / Fold change vs veh, DNAJB6 / RFU, CACNA2D3 / Fold change vs veh, CACNA2D3 / RFU, DTX4 / Fold change vs veh, DTX4 / RFU, TFCP2 / Fold change vs veh, TFCP2 / RFU, GMCL1 /// GMCL1P1 / Fold change vs veh, GMCL1 /// GMCL1P1 / RFU, AEBP2 / Fold change vs veh, AEBP2 / RFU, SNHG1 /// SNORD22 /// SNORD25 /// SNORD26 /// SNORD27 /// SNORD28 /// SNORD29 /// SNORD31 / Fold change vs veh, SNHG1 /// SNORD22 /// SNORD25 /// SNORD26 /// SNORD27 /// SNORD28 /// SNORD29 /// SNORD31 / Fold change (Aza/veh), C12orf56 (ProbeSet 11735607_a_at) / Fold change (ACY-1035/veh), C12orf56 (ProbeSet 11735607_a_at) / Fold change (Aza/veh), FGFR1OP (ProbeSet 11751329_s_at) / Fold change (ACY-1035/veh), FGFR1OP (ProbeSet 11751329_s_at) / Fold change (Aza/veh), VPS36 (ProbeSet 11739960_a_at) / Fold change (ACY-1035/veh), VPS36 (ProbeSet 11739960_a_at) / RFU SYPL1 (11715823_x_at) / Fold change /veh SYPL1 (11715823_x_at) / RFU IGFBP7 (11715501_s_at) / Fold change /veh IGFBP7 (11715501_s_at) / RFU REEP3 (11722064_at) / Fold change /veh REEP3 (11722064_at) / RFU IGLL1 (11728026_x_at) / Fold change /veh IGLL1 (11728026_x_at): dose or concentration left out as unconfirmed. As to conditions: ProbeSet 11747888_a_at; LIST D.

`Nc1ccc(-c2cccs2)cc1NC(=O)c1ccc2c(c1)cc(C1CC1)n2CCN1CCOCC1` [ACY-1035]: the “Fold change vs veh, SH3YL1” value is listed as 0.93.
